Reference: PubChem BioAssay (NCI)
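Five compound concentrations were applied to cells in 96-well plates for 48 hours; endpoints were derived by simple linear interpolation of the resulting dose-response curve. TGI marks complete inhibition of growth.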

Legend:
Test in all cases: inhibition of tumour cell growth, NCI panel, 48 h
OVCAR-5 ovarian = tested on: OVCAR-5 ovarian
NCI-H23 lung = tested on: NCI-H23 lung
MCF7 breast = tested on: MCF7 breast
NCI-H460 lung = tested on: NCI-H460 lung
OVCAR-4 ovarian = tested on: OVCAR-4 ovarian
HS 578T breast = tested on: HS 578T breast
U251 CNS = tested on: U251 CNS
UACC-257 melanoma = tested on: UACC-257 melanoma
786-0 renal = tested on: 786-0 renal
SF-295 CNS = tested on: SF-295 CNS
MALME-3M melanoma = tested on: MALME-3M melanoma
MDA-MB-435 = tested on: MDA-MB-435
HL-60(TB) leukemia = tested on: HL-60(TB) leukemia
HOP-92 NSCLC = tested on: HOP-92 NSCLC
CAKI-1 renal = tested on: CAKI-1 renal
SN12C renal = tested on: SN12C renal
SK-MEL-28 melanoma = tested on: SK-MEL-28 melanoma
DU-145 prostate = tested on: DU-145 prostate
MDA-MB-231 breast = tested on: MDA-MB-231 breast
MOLT-4 leukemia = tested on: MOLT-4 leukemia
A498 renal = tested on: A498 renal
M14 melanoma = tested on: M14 melanoma
NCI-H522 lung = tested on: NCI-H522 lung
NCI/ADR-RES ovarian = tested on: NCI/ADR-RES ovarian
SR leukemia = tested on: SR leukemia
BT-549 breast = tested on: BT-549 breast
KM12 colon = tested on: KM12 colon
HOP-62 NSCLC = tested on: HOP-62 NSCLC
SNB-19 CNS = tested on: SNB-19 CNS
RXF 393 renal = tested on: RXF 393 renal
OVCAR-8 ovarian = tested on: OVCAR-8 ovarian
ACHN renal = tested on: ACHN renal
RPMI-8226 leukemia = tested on: RPMI-8226 leukemia
IGROV1 ovarian = tested on: IGROV1 ovarian
PC-3 prostate = tested on: PC-3 prostate
EKVX NSCLC = tested on: EKVX NSCLC
HCT-15 colon = tested on: HCT-15 colon
SK-OV-3 ovarian = tested on: SK-OV-3 ovarian
UO-31 renal = tested on: UO-31 renal
SW-620 colon = tested on: SW-620 colon
UACC-62 melanoma = tested on: UACC-62 melanoma
K-562 leukemia = tested on: K-562 leukemia
OVCAR-3 ovarian = tested on: OVCAR-3 ovarian
A549 NSCLC = tested on: A549 NSCLC
T-47D breast = tested on: T-47D breast
SK-MEL-2 melanoma = tested on: SK-MEL-2 melanoma
MDA-N = tested on: MDA-N
SNB-75 CNS = tested on: SNB-75 CNS
LOX IMVI melanoma = tested on: LOX IMVI melanoma
SF-268 CNS = tested on: SF-268 CNS
SF-539 CNS = tested on: SF-539 CNS
NCI-H226 lung = tested on: NCI-H226 lung
HCT-116 colon = tested on: HCT-116 colon
CCRF-CEM leukemia = tested on: CCRF-CEM leukemia
HT29 colon = tested on: HT29 colon
COLO 205 colon = tested on: COLO 205 colon
M19-MEL melanoma = tested on: M19-MEL melanoma
DMS 114 small cell lung = tested on: DMS 114 small cell lung
SK-MEL-5 melanoma = tested on: SK-MEL-5 melanoma
DMS 273 small cell lung = tested on: DMS 273 small cell lung
LXFL 529 NSCLC = tested on: LXFL 529 NSCLC
DLD-1 colon = tested on: DLD-1 colon
SNB-78 CNS = tested on: SNB-78 CNS
HCC-2998 colon = tested on: HCC-2998 colon
TK-10 renal = tested on: TK-10 renal

CSC(=N/C=C/c1ccccc1)SC
TGI (OVCAR-5 ovarian): > 100 µM | TGI (NCI-H23 lung): > 100 µM | TGI (MCF7 breast): > 100 µM | TGI (NCI-H460 lung): > 100 µM | TGI (OVCAR-4 ovarian): > 100 µM | TGI (HS 578T breast): > 100 µM | TGI (U251 CNS): > 100 µM | TGI (UACC-257 melanoma): > 100 µM | TGI (786-0 renal): > 100 µM | TGI (SF-295 CNS): > 100 µM | TGI (MALME-3M melanoma): > 100 µM | TGI (MDA-MB-435): > 100 µM | TGI (HL-60(TB) leukemia): > 100 µM | TGI (HOP-92 NSCLC): > 100 µM | TGI (CAKI-1 renal): > 100 µM | TGI (SN12C renal): > 100 µM | TGI (SK-MEL-28 melanoma): > 100 µM | TGI (DU-145 prostate): > 100 µM | TGI (MDA-MB-231 breast): > 100 µM | TGI (MOLT-4 leukemia): > 100 µM | TGI (A498 renal): > 100 µM | TGI (M14 melanoma): > 100 µM | TGI (NCI-H522 lung): > 100 µM | TGI (NCI/ADR-RES ovarian): > 100 µM | TGI (SR leukemia): > 100 µM | TGI (BT-549 breast): > 100 µM | TGI (KM12 colon): > 100 µM | TGI (HOP-62 NSCLC): > 100 µM | TGI (SNB-19 CNS): > 100 µM | TGI (RXF 393 renal): > 100 µM | TGI (OVCAR-8 ovarian): > 100 µM | TGI (ACHN renal): > 100 µM | TGI (RPMI-8226 leukemia): > 100 µM | TGI (IGROV1 ovarian): > 100 µM | TGI (PC-3 prostate): > 100 µM | TGI (EKVX NSCLC): > 100 µM | TGI (HCT-15 colon): > 100 µM | TGI (SK-OV-3 ovarian): > 100 µM | TGI (UO-31 renal): > 100 µM | TGI (SW-620 colon): > 100 µM | TGI (UACC-62 melanoma): > 100 µM | TGI (K-562 leukemia): > 100 µM | TGI (OVCAR-3 ovarian): > 100 µM | TGI (A549 NSCLC): > 100 µM | TGI (T-47D breast): > 100 µM | TGI (SK-MEL-2 melanoma): > 100 µM | TGI (MDA-N): > 100 µM | TGI (SNB-75 CNS): > 100 µM | TGI (LOX IMVI melanoma): > 100 µM | TGI (SF-268 CNS): > 100 µM | TGI (SF-539 CNS): > 100 µM | TGI (NCI-H226 lung): > 100 µM | TGI (HCT-116 colon): > 100 µM | TGI (CCRF-CEM leukemia): > 100 µM | TGI (HT29 colon): > 100 µM | TGI (COLO 205 colon): > 100 µM

CC1(C)CCc2ccc(OCCC(=O)O)cc2O1
TGI (OVCAR-5 ovarian): > 100 µM | TGI (NCI-H23 lung): > 100 µM | TGI (NCI-H460 lung): > 100 µM | TGI (M19-MEL melanoma): > 100 µM | TGI (OVCAR-4 ovarian): > 100 µM | TGI (U251 CNS): > 100 µM | TGI (SF-295 CNS): > 100 µM | TGI (MALME-3M melanoma): > 100 µM | TGI (HL-60(TB) leukemia): > 100 µM | TGI (HOP-92 NSCLC): > 100 µM | TGI (CAKI-1 renal): > 100 µM | TGI (SN12C renal): > 100 µM | TGI (MOLT-4 leukemia): > 100 µM | TGI (M14 melanoma): > 100 µM | TGI (NCI-H522 lung): > 100 µM | TGI (SR leukemia): > 100 µM | TGI (DMS 114 small cell lung): > 100 µM | TGI (KM12 colon): > 100 µM | TGI (HOP-62 NSCLC): > 100 µM | TGI (OVCAR-8 ovarian): > 100 µM | TGI (ACHN renal): > 100 µM | TGI (RPMI-8226 leukemia): > 100 µM | TGI (IGROV1 ovarian): > 100 µM | TGI (EKVX NSCLC): > 100 µM | TGI (HCT-15 colon): > 100 µM | TGI (SK-OV-3 ovarian): > 100 µM | TGI (UO-31 renal): > 100 µM | TGI (SW-620 colon): > 100 µM | TGI (UACC-62 melanoma): > 100 µM | TGI (SK-MEL-5 melanoma): > 100 µM | TGI (DMS 273 small cell lung): > 100 µM | TGI (LXFL 529 NSCLC): > 100 µM | TGI (K-562 leukemia): > 100 µM | TGI (OVCAR-3 ovarian): > 100 µM | TGI (A549 NSCLC): > 100 µM | TGI (SK-MEL-2 melanoma): > 100 µM | TGI (SNB-75 CNS): > 100 µM | TGI (LOX IMVI melanoma): > 100 µM | TGI (SF-268 CNS): > 100 µM | TGI (SF-539 CNS): > 100 µM | TGI (DLD-1 colon): > 100 µM | TGI (NCI-H226 lung): > 100 µM | TGI (HCT-116 colon): > 100 µM | TGI (CCRF-CEM leukemia): > 100 µM | TGI (HT29 colon): > 100 µM | TGI (SNB-78 CNS): > 100 µM | TGI (COLO 205 colon): > 100 µM

CO[C@]1(c2ccc([N+](=O)[O-])cc2)Oc2ccccc2C(=O)[C@@]1(Nc1ccc(C=O)cc1)OC
TGI (OVCAR-5 ovarian): > 10 µM | TGI (NCI-H23 lung): > 10 µM | TGI (MCF7 breast): > 10 µM | TGI (NCI-H460 lung): > 10 µM | TGI (OVCAR-4 ovarian): > 10 µM | TGI (HCC-2998 colon): > 10 µM | TGI (HS 578T breast): > 10 µM | TGI (U251 CNS): > 10 µM | TGI (UACC-257 melanoma): > 10 µM | TGI (786-0 renal): > 10 µM | TGI (SF-295 CNS): > 10 µM | TGI (MALME-3M melanoma): > 10 µM | TGI (MDA-MB-435): > 10 µM | TGI (HL-60(TB) leukemia): > 10 µM | TGI (CAKI-1 renal): > 10 µM | TGI (SN12C renal): > 10 µM | TGI (SK-MEL-28 melanoma): > 10 µM | TGI (TK-10 renal): > 10 µM | TGI (DU-145 prostate): > 10 µM | TGI (MDA-MB-231 breast): > 10 µM | TGI (MOLT-4 leukemia): > 10 µM | TGI (A498 renal): > 10 µM | TGI (M14 melanoma): > 10 µM | TGI (NCI/ADR-RES ovarian): > 10 µM | TGI (SR leukemia): > 10 µM | TGI (BT-549 breast): > 10 µM | TGI (KM12 colon): > 10 µM | TGI (HOP-62 NSCLC): > 10 µM | TGI (SNB-19 CNS): > 10 µM | TGI (RXF 393 renal): > 10 µM | TGI (OVCAR-8 ovarian): > 10 µM | TGI (ACHN renal): > 10 µM | TGI (RPMI-8226 leukemia): > 10 µM | TGI (IGROV1 ovarian): > 10 µM | TGI (PC-3 prostate): > 10 µM | TGI (EKVX NSCLC): > 10 µM | TGI (HCT-15 colon): > 10 µM | TGI (SK-OV-3 ovarian): > 10 µM | TGI (UO-31 renal): > 10 µM | TGI (SW-620 colon): > 10 µM | TGI (UACC-62 melanoma): > 10 µM | TGI (SK-MEL-5 melanoma): > 10 µM | TGI (K-562 leukemia): > 10 µM | TGI (OVCAR-3 ovarian): > 10 µM | TGI (A549 NSCLC): > 10 µM | TGI (T-47D breast): > 10 µM | TGI (SK-MEL-2 melanoma): > 10 µM | TGI (MDA-N): > 10 µM | TGI (SNB-75 CNS): > 10 µM | TGI (LOX IMVI melanoma): > 10 µM | TGI (SF-268 CNS): > 10 µM | TGI (SF-539 CNS): > 10 µM | TGI (NCI-H226 lung): > 10 µM | TGI (HCT-116 colon): > 10 µM | TGI (CCRF-CEM leukemia): > 10 µM | TGI (HT29 colon): > 10 µM | TGI (COLO 205 colon): > 10 µM
